# From US7034208B1, “Ahas inhibiting herbicide resistant wheat and method for selection thereof” (BASF Aktiengellschaft, priority 1991, dated 2006)
# Like-named read-outs stand apart in the source and are kept apart here.
# Tests used:
# [1] = system: wheat selection FS4 and Fidel; experiment: Field Trial II; assay type: in vivo; conditions: for effect on final plant height: resistant selection FS4, postemergent, six weeks after treatment
# [2] = system: wheat seeds; experiment: Seed soak screen (Example 1, Step 1, Experiments 1-4); assay type: in vivo; conditions: for seedling appearance versus controls: by three to four weeks; for herbicide concentration necessary for lethality: seed soak
# Experimental: The seeds are rinsed in sterile distilled water and then soaked in a herbicide concentration for a set period of time, as described below. Sets of twenty-five seeds are placed into 25 ml of the herbicide solution described below in a sterile 100×15 mm plastic petri dish and soaked for the designated time. The seeds are rinsed with water, dried with paper towels and planted (25 seeds/flat) approximately ½″ deep in 6×8 inch peat flats containing a moist, sterile, artificial soil, Metro Mix 350™ (Grace Company, Cambridge, Mass.). The treatments are evaluated at four weeks after treatment. The herbicides, rates and time periods evaluated are described below:
# Each treatment is replicated four times.
# Each treatment is replicated two times.
# The protocol is as described above except that 35 seeds are soaked per petri dish; 25 seeds are still planted per flat. This experiment is repeated twice.
# [3] = system: AHAS (acetohydroxyacid synthase); experiment: AHAS Enzyme Assay I and II (M4 Plants); assay type: biochemical, wheat; conditions: mutant selections; level lower than that for PURSUIT
# Experimental: Enzyme Extraction: For the extraction of AHAS, 10 grams of tissue are powdered in liquid nitrogen and then homogenized in 100 mM potassium phosphate buffer (pH 7.5) containing 10 mM pyruvate, 5 mM MgCl2, 5 uM EDTA, 100 uM FAD, 1 mM valine, 1 mM leucine, 10% glycerol, and 10 mM cysteine. The homogenate is filtered through a nylon cloth (53 uM mesh) and centrifuged at 25,000 g for 20 minutes. The supernatant fraction is brought to 50% saturation with respect to (NH4)2SO4 and allowed to stand for 20-30 minutes on ice. It is then centrifuged at 25,000 g for 20 minutes and the supernatant is discarded. The ammonium sulfate pellet is dissolved in 50 mM potassium phosphate buffer (pH 7.5) containing 1 mM EDTA and 100 mM NaCl and used for the assay procedures.
# AHAS Assay: AHAS activity is measured by estimation of the product, acetolactate, after conversion by decarboxylation in the presence of acid to acetoin. Standard reaction mixtures contain the enzyme in 50 mM potassium phosphate buffer (pH 7.0) containing 100 mM sodium pyruvate, 10 mM MgCl2, 1 mM thiamine pyrophosphate, and 10 uM FAD. This mixture is incubated at 37° C. for one hour after which time the reaction is stopped with the addition of […] to make a final concentration of 0.85% […] in the tube. The reaction product is allowed to decarboxylate at 60° C. for 15 minutes. The acetoin formed is determined by incubating with creatine (0.17%) and 1-napthol (1.7% in 4N NaOH) by the method of Westerfield (Westerfield, W. W., J. Biol. Chem., 161, 495-502 (1945)). Maximum color is observed by incubation at 60° C. for 15 minutes and then further incubation at room temperature for 15 minutes. The absorption of color complex is measured at 520 nm. Appropriate checks of direct acetoin formation during the enzyme assay are made. Each assay is run at least in duplicate and the experiments are repeated a minimum of two times.
# Herbicide Application: Two flats are planted with approximately 100 seeds of each wheat selection (FS1, FS2, and FS4) and Fidel in sterile Metro Mix 350. Ten days later, each flat is sprayed postemergence with 62.5 g/ha of PURSUIT™. The spray delivery rate is 400 L/ha with a belt speed of 8.2 sec/rev using nozzle #65015E. Tween 20™ is used as a surfactant at 0.25% v/v. The plants are harvested three days later and assayed for AHAS activity.
# Enzyme Extraction and AHAS Assay: As previously described.
# Herbicide Application: As described above (Enzyme Assay I) except that the spray delivery rate is 950 l/ha with a belt speed of 12.8 sec/rev using nozzle #40015E.
# [4] = system: wheat selections FS2 and FS4 and Fidel; experiment: Postemergence Herbicide Tolerance, upper limits; assay type: in vivo; conditions: four weeks after treatment
# Source text: In this second greenhouse test, the upper limits of the mutant selections' resistance to postemergent applications of PURSUIT™ and Compound 2 are examined. M4 seed of two of the mutant selections, FS2 and FS4, and seed of Fidel are used in this experiment. Five seeds from each line are planted per pot in sterile Metro Mix 350™ in six inch Azalea pots. Immediately prior to herbicide treatment, these plants are thinned to three plants per pot. Three replicates are used per treatment (chemical & rate) for each line, and six replicates per wheat line are used as untreated controls. The plants are sprayed postemergence, 10 days after planting, with the following herbicides and rates (g/ha):
# The herbicides are applied as previously described. Plant height is measured immediately prior to spraying. Plant heights are also measured at two and four weeks after treatment, and shoot fresh weights measured at seven weeks after treatment.
# [5] = system: mutant wheat selections FS1-FS4 and Fidel; assay type: in vivo
# Source text: This greenhouse test examines the level and spectrum of herbicide resistance of the mutant selections at the whole plant level. […] These lines are bulked according to their parental lines: FS1, FS2, FS3 and FS4. Fidel (wild-type) is used is a control and for performance comparison purposes. Five seeds from each of these lines (including Fidel) are planted per pot in six inch Azalea pots and are later thinned to three plants per pot. Three replicates are used per treatment (chemical and rate) for each line, and six replicates per wheat line are used as untreated controls. Plants are sprayed postemergence, 10 days after planting, with the following herbicides and rates: […]
# [6] = system: wheat variety Fidel and resistant selections FS2 and FS4; experiment: Preemergence Herbicide Tolerance; assay type: in vivo; conditions: pre-emergence application; plant growth after four weeks; versus Fidel
# [7] = system: wheat seed of the susceptible cultivar Fidel; experiment: Pre-emergence herbicide application, rate finding; assay type: in vivo; conditions: visual toxicity after three to four weeks
# Experimental: A series of experiments is performed to determine the appropriate herbicide rate for this pre-emergent spray treatment. Wheat seed of the susceptible cultivar Fidel is planted in Metro Mix 350™ in 6×8 inch peat flats at a rate of 100 seeds per flat. The flats are watered prior to herbicide treatment. Three flats are sprayed per treatment. The herbicides are applied with a laboratory belt sprayer at a rate of 950 liters per hectare (L/ha) at a belt speed of 12.8 sec/rev using sprayer nozzle #40015E (Teejet™ Spraying Systems). After three to four weeks, the treatments are evaluated by visual observation for toxicity to the wheat seeds/seedlings.
# [8] = system: mutant wheat selection FS2 and Fidel; experiment: M3-M4 Wheat Herbicide Resistance Spectrum; assay type: in vivo; conditions: FS2 versus Fidel; postemergence
# Source text: In this experiment, the tolerance of imidazolinone-resistant wheat to three sulfonylurea herbicides (BEACON™, CLASSIC™ and OUST™ (BEACON™ is a registered trademark of Ciba-Geigy and is 2-[4,6-bis-(difluoro-methoxy)-pyrimidin-2-ylcarbamoylsulfamoyl]benzoic acid; CLASSIC™ is a registered trademark of E.I. du Pont de Nemours and Company and is the ethyl ester of o-[[(4-chloro-6-methoxy-2-pyrimidinyl)-carbamoyl]-sulfamoyl]-benzoic acid), a sulfamoylurea herbicide (Compound 3), a sulfonylcarboxamide (Compound 1), and an imidazolinone herbicide (Compound 7, which is 3-(4-isopropyl-4-methyl-5-oxo-2-imidazolin-2-yl)-2-methyl-crotonic acid), is examined to look for cross-tolerance to AHAS-inhibiting herbicides other than the imidazolinones. […] Each treatment consists of three replicates. In addition, there are six replicates each of FS2 and Fidel which are used as untreated controls. Plants are sprayed postemergence, 7 days after planting, with the following herbicides and rates:
# The herbicides are applied as previously described. Plants are rated at two, three and four weeks after treatment with herbicide.
# [9] = system: mutant wheat selection FS2 and Fidel; conditions: FS2 versus Fidel; postemergence
# Source text: In a second experiment, the mutant wheat selection, FS2, from bulked M3-M4 seed, and Fidel seed are planted in 6″ Azalea pots in sterile Metro Mix 350™. Three seeds are planted per pot initially; these are subsequently thinned to two plants. There are three replicates of each treatment. In addition, the untreated controls consist of 15 replicates each of Fidel and FS2. Plants are sprayed postemergence, 12 days after planting, with the following herbicides and rates: […]
# [10] = mutant wheat FS1-FS4, postemergence, plant growth four weeks after treatment
smiles,measurement,setting,value
"Cc1cnc(C2=NC(C)(C(C)C)C(=O)N2)c(C(=O)O)c1 (centres unmarked) [CADRE, 2-(4-isopropyl-4-methyl-5-oxo-2-imidazolin-2-yl)-5-methylnicotinic acid]",effect on final plant height,[1],no effect
"CC(C)C1(C)N=C(c2nc3ccccc3cc2C(=O)O)NC1=O (centres unmarked) [SCEPTER, 2-(4-isopropyl-4-methyl-5-oxo-2-imidazolin-2-yl)-3-quinolinecarboxylic acid]",seedling appearance versus controls,[2]; seed soak 500 uM for 48 hours,slightly shorter than controls
same,seedling appearance versus controls,[2]; seed soak 1-100 uM for 48 hours,indistinguishable from controls
same,prevention of escapes (false positives),"[2]; seed soak maximum 1000 uM for 48 hours, Experiment 2",still not high enough to prevent “escapes”
same,resistance of AHAS activity to inhibition,[3],Some resistance
"COCc1cnc(C2=NC(C)(C(C)C)C(=O)N2)c(C(=O)O)c1 (centres unmarked) [Compound 2, 2-(4-isopropyl-4-methyl-5-oxo-2-imidazolin-2-yl)-5-(methoxymethyl)-nicotinic acid]",rates up to which FS2 and FS4 plant heights equal the untreated controls,[4],25-50 g/ha
same,rate to which the mutant wheat is resistant,[5]; [10],more than 80 g/ha
same,increased tolerance of mutant wheat,"[5]; mutant wheat FS1-FS4 versus Fidel, postemergence, four weeks after treatment",~16 fold
same,effect on final plant height,[1],no effect
"COC(OC)c1cnc(C2=NC(C)(C(C)C)C(=O)N2)c(C(=O)O)c1 (centres unmarked) [Compound 8, 5-formyl-2-(4-isopropyl-4-methyl-5-oxo-2-imidazolin-2-yl)-nicotinic acid, 5-(dimethylacetal)]",effect on final plant height,[1],no effect
"COc1cc(OC)nc(NC(=O)NS(=O)(=O)c2ncccc2C(=O)N(C)C)n1 [ACCENT, 1-(4,6-dimethoxypyrimidin-2-yl)-3-(3-dimethylcarbamoyl-2-pyridylsulfonyl)urea]",cross resistance,"[1]; FS4, after three weeks",no cross resistance
same,tolerance of the resistant wheat,"[1]; FS4, postemergent 20 and 40 g/ha",little or no tolerance
same,grain yield,"[1]; both the resistant and susceptible Fidel, yields 10 weeks after treatment",little or no grain yield
"CC(C)C1(C)N=C(c2ncccc2C(=O)O)NC1=O (centres unmarked) [ARSENAL, 2-(4-isopropyl-4-methyl-5-oxo-2-imidazolin-2-yl)-nicotinic acid]",increased tolerance of FS2 and FS4,[6],approximately 8 fold
same,"most effective rate, pre-emergent spray",[7],40-50 g/ha
same,effect on seed germination and seedling growth,"[2]; seed soak 1-500 uM for 48 hours, Experiment 1",inhibits seed germination and seedling growth with increasing concentration
same,seedling growth,[2]; seed soak 100 and 500 uM for 48 hours,totally inhibit seedling growth
same,herbicide concentration necessary for lethality,[2]; exposure greater than 72 hours,50 µM
same,herbicide concentration necessary for lethality,[2]; length of exposure less than 72 hours,75 µM
same,rate to which the mutant wheat is resistant,[5]; [10],more than 48 g/ha
"C/C(C(=O)O)=C(\C)C1=NC(C)(C(C)C)C(=O)N1 (centres unmarked) [Compound 7, 3-(4-isopropyl-4-methyl-5-oxo-2-imidazolin-2-yl)-2-methyl-crotonic acid]",resistance,[8],greater than 10 fold
"CC(=O)NC(C)(C(=O)NS(=O)(=O)c1ccc(Cl)cc1)C(C)C (centres unmarked) [Compound 1, 2-acetamido-N-[(p-chlorophenyl)sulfonyl]-2,3-dimethyl-butyramide]",inhibitory effect on seed germination or seedling growth,"[2]; seed soak 500-2000 uM for 48, 72 or 96 hours",does not have an inhibitory effect on either seed germination or seedling growth
"COC(=O)c1ccccc1S(=O)(=O)NC(=O)Nc1nc(C)cc(C)n1 [OUST, methyl ester of o-[[3-(4,6-dimethylpyrimidin-2-yl)ureido]sulfonyl]-benzoic acid]",increased tolerance of the resistant wheat,[9],2-4 fold
same,increased tolerance of mutant wheat,[5]; in vivo,~2 fold
same,rate to which the mutant wheat is resistant,[5]; in vivo,more than 5 g/ha
same,resistance of AHAS activity to inhibition,[3],Some resistance
